Series [1] deals with MAC15A (murine adenocarcinoma colon). The series can be described thus: Anti-tumour activity against MAC15A ascites tumour, survival T/C%. As to conditions: for T/C%: mouse, in vivo; for response vs control in vivo at 100 mg/kg: Mus musculus, MAC15A, read-out: T/C%. The class given is in vivo, mice.
The test system of a further series is HIV-1IIIB. The series is described as follows: Acute infection assay against HIV-1IIIB. The class given is cell-based, human immunodeficiency virus. As to conditions: for IC50: read-out: IC50 (Antiviral).
The subject of the next series is HIV-1RF. The series can be described thus: Acute Infection Assay, HIV core antigen ELISA in C8166 cells. The class given is cell-based, human immunodeficiency virus.
The next series relates to B16F1-murine melanoma. The following applies: 12 days after sc transplant, corn oil.
The next series can be described thus: in vitro. The following applies: CC50 (Toxicity).
The next series can be described thus: in vivo. As to conditions: mouse, ip.
Setting [2] is: Human immunodeficiency virus 1, IIIB.
The mark [3] stands for this setting: Human immunodeficiency virus 1, Table 11.3, Against HIV-IIIB / HIV-1IIIB, single assays, unit inferred.
Setting [4] is: Human immunodeficiency virus 1, C8166, read-out: IC50 (Antiviral).
[5] abbreviates: Human immunodeficiency virus 1, C8166, Table 11.4, Against HIV-1RF, single assays, unit inferred, read-out: IC50 (Antiviral).

These results are taken from patent publication EP1016405A2, “Arylating medicaments” (Radopath Pharmaceuticals International Limited, priority 1993, dated 1994).

Values joined by “and” are separate entries in the source; they are usually repeats but may differ in a detail not shown here. Equal values may be shown once. Read-outs that look alike come from different tables or passages of the source.

“2-glutathionyl-3,5-dinitrobenzenesulfonic acid” registered a T/C% in series [1] (ip) of 242%.
The same measure, in the same setting: with 4-glutathionyl-3,5-dinitrobenzene the figure was 113%; with `Nc1ccc([N+](=O)[O-])cc1[N+](=O)[O-]` [2,4-dinitroaniline], 100%.
For the compound `O=C(O)c1ccc([N+](=O)[O-])cc1[N+](=O)[O-]` [2,4-dinitrobenzoic acid], the T/C% in series [1] (ip) turned out to be 100%.
`Nc1c([N+](=O)[O-])cccc1[N+](=O)[O-]` [2,6-dinitroaniline] registered a T/C% in series [1] (ip) of 214%.
As for `Nc1ccc([N+](=O)[O-])cc1Cl` [2-chloro-4-nitroaniline], in series [1] (ip), the response vs control in vivo at 100 mg/kg was 171%.
The compound `O=C(O)c1cc([N+](=O)[O-])cc([N+](=O)[O-])c1` [3,5-dinitrobenzoic acid] gave a T/C% in series [1] (ip) of 100%.
For the compound `Cc1ccc(S(=O)(=O)O)cc1[N+](=O)[O-]` [3-nitro-4-methylbenzenesulfonic acid], the response vs control in vivo at 100 mg/kg in series [1] (ip) amounted to 229%.
In the case of `NC(=O)c1cc([N+](=O)[O-])c(N)c([N+](=O)[O-])c1` [4-amino-3,5-dinitrobenzamide], in series [1] (ip, 24 h), the response vs control in vivo at 100 mg/kg was 100%.
As for `Nc1c([N+](=O)[O-])cc(Cl)cc1[N+](=O)[O-]` [4-chloro-2,6-dinitroaniline], the T/C% in series [1] (ip) is 87%.
With `COc1ccc(Cl)c([N+](=O)[O-])c1` [4-chloro-3-nitroanisole], the response vs control in vivo at 100 mg/kg in series [1] (ip) turned out to be 100%.
In the case of `Nc1c(Cl)cc([N+](=O)[O-])cc1[N+](=O)[O-]` [6-chloro-2,4-dinitroaniline], the T/C% in series [1] (ip) was 87%.
Broadly, the CC50 is the concentration that lowers cell viability or growth by half. Read a low CC50 as harm at low concentration. As to `O=C(O)c1cc([N+](=O)[O-])c(Cl)c([N+](=O)[O-])c1` [Compound C4, 4-chloro-3,5-dinitrobenzoic acid], the “SI (Selectivity Index)” value with HIV-1IIIB was 2.5 and 2.3. Also, in the series on uninfected cells, the CD50 is 70µm. Moreover, the TI with HIV-1RF worked out at 2.33. The “% Tumour Weight Inhibition” value in the series on B16F1-murine melanoma (50 mg/kg ip, days 1,5) is reported as 10%; in the series with B16F1-murine melanoma (75 mg/kg ip, days 1,5), 41%; with B16F1-murine melanoma (100 mg/kg ip, days 1,5), 39%. This compound registered a CC50 in the series “in vitro” of 100 µM.
Consider `NC(=O)c1cc([N+](=O)[O-])c(Cl)c([N+](=O)[O-])c1` [Compound C5, 4-chloro-3,5-dinitrobenzamide], for which the “SI (Selectivity Index)” value with HIV-1IIIB was 10. Also, the MTD at 12 days in “in vivo” turned out to be 5 mg/kg. Moreover, the “% Tumour Weight Inhibition” value with B16F1-murine melanoma (1.25 mg/kg ip, days 1,3,5) was determined as 27%; with B16F1-murine melanoma (2.5 mg/kg ip, days 1,3,5) it was 18%; with B16F1-murine melanoma (5 mg/kg ip, days 1,3,5), 18%. The same compound displayed a CC50 in “in vitro” of 50 µM.
As usually defined, the IC50 is the midpoint of a concentration-inhibition curve. On to `COC(=O)c1cc([N+](=O)[O-])c(Cl)c([N+](=O)[O-])c1` [Compound C6, 4-chloro-3,5-dinitrobenzoic acid methyl ester], for which, in the series on HIV-1IIIB (setting [2]), the IC50 stood at 5 µM. Further, the MTD in “in vivo” is 2.5 mg/kg. Moreover, the CC50 in “in vitro” amounted to 60 µM.
For `O=C(O)c1cc([N+](=O)[O-])cc([N+](=O)[O-])c1Cl` [Compound C7, 2-chloro-3,5-dinitrobenzoic acid], in the series with HIV-1IIIB, the “SI (Selectivity Index)” value was 6 and >10. In addition, in the series on HIV-1IIIB, the IC50 turned out to be 23 µM. Further, the values for the CC50 with uninfected cells and in the series “in vitro” were over 200 µM and 150 µM, respectively.
In the case of `COC(=O)c1cc([N+](=O)[O-])cc([N+](=O)[O-])c1Cl` [Compound C8, 2-chloro-3,5-dinitrobenzoic acid methyl ester], in the series on HIV-1IIIB (setting [2]), the IC50 was 10 µM. This compound registered a CC50 in the series “in vitro” of 60 µM.
With `O=C(O)c1ccc(Cl)c([N+](=O)[O-])c1` [Compound C9, 4-chloro-3-nitrobenzoic acid], the IC50 in the series on HIV-1IIIB (setting [3]) was over 200 µM. The CC50 in the series “in vitro” is over 200 µM.
For the compound `O=C(O)c1ccc([N+](=O)[O-])cc1Cl` [Compound C-10, 2-chloro-4-nitrobenzoic acid], the IC50 with HIV-1IIIB (setting [3]) was over 200 µM. The compound further yielded a CC50 in the series “in vitro” of over 200 µM.
As to `O=C(O)c1ccc(Cl)c(Cl)c1` [Compound C-11, 3,4-dichlorobenzoic acid], the 50% inhibitory concentration (IC50) in the series with HIV-1IIIB (setting [3]) was over 200 µM. Also, in “in vitro”, the CC50 is over 200 µM.
In the case of `O=C(O)c1cc(Cl)ccc1Cl` [Compound C-12, 2,5-dichlorobenzoic acid], the response vs control in vivo at 100 mg/kg in series [1] (ip) worked out at 171%. Further, in the series “in vitro”, the CC50 is over 200 µM.
The compound `O=[N+]([O-])c1ccc(Cl)cc1[N+](=O)[O-]` [Compound E1, 1-chloro-3,4-dinitrobenzene] registered a T/C% in series [1] (ip) of 200%. Moreover, in the series on HIV-1RF, the “SI (Selectivity Index)” value is listed as 2.5. Further, the 50% inhibitory concentration (IC50) in the series on HIV-1RF (read-out: IC50 (Antiviral)) stood at 4 µM. Moreover, the cytotoxic concentration (CC50) in the series “in vitro” was found to be 10 µM.
As to `O=[N+]([O-])c1ccc(Cl)c([N+](=O)[O-])c1` [Compound E2, 1-chloro-2,4-dinitrobenzene], in series [1] (ip), the response vs control in vivo at 100 mg/kg was 188%. Moreover, the “SI (Selectivity Index)” value with HIV-1RF worked out at 3. Besides, the half-maximal inhibitory concentration (IC50) in the series on HIV-1RF (setting [4]) came to 4 µM. In the series “in vitro”, this compound returned a 50% cytotoxic concentration (CC50) of 13 µM.
The compound `O=[N+]([O-])c1cc(Cl)c(Cl)cc1[N+](=O)[O-]` [Compound E3, 1,2-dichloro-4,5-dinitrobenzene] displayed a T/C% in series [1] (ip) of 171%. For the same compound, in the series on HIV-1RF, the “SI (Selectivity Index)” value worked out at 1.5. Moreover, the IC50 in the series on HIV-1RF (read-out: IC50 (Antiviral)) is 4 µM. This compound came in with a CC50 in “in vitro” of 7 µM.
For `O=[N+]([O-])c1cccc(Cl)c1Cl` [Compound E4, 2,3-dichloronitrobenzene], in the series on uninfected cells, the CC50 was over 200 µM. The “SI (Selectivity Index)” value in the series on HIV-1RF worked out at 1.5. In the series on HIV-1RF (setting [4]), the IC50 turned out to be 80 µM.
With `O=[N+]([O-])c1ccc(Cl)cc1Cl` [Compound E5, 2,4-dichloronitrobenzene], in the series with uninfected cells, the CC50 was over 200 µM. The “SI (Selectivity Index)” value in the series with HIV-1RF came out at 1. The half-maximal inhibitory concentration (IC50) with HIV-1RF (setting [4]) worked out at 180 µM.
For the compound `O=[N+]([O-])c1cc(Cl)ccc1Cl` [Compound E6, 2,5-dichloronitrobenzene], the “SI (Selectivity Index)” value in the series with HIV-1RF came to 2. In addition, in the series on HIV-1RF (setting [4]), the 50% inhibitory concentration (IC50) was found to be 110 µM. The same compound gave a CC50 in “in vitro” of over 200 µM.
On to `O=[N+]([O-])c1ccc(Cl)c(Cl)c1` [Compound E7, 3,4-dichloronitrobenzene], for which the CC50 in the series on uninfected cells is over 200 µM. The 50% inhibitory concentration (IC50) with HIV-1RF (setting [4]) is over 200 µM.
Turning to `O=[N+]([O-])c1cc(Cl)cc(Cl)c1` [Compound E8, 3,5-dichloronitrobenzene], in the series on uninfected cells, the CC50 was over 200 µM. For the same compound, in the series on HIV-1RF, the “SI (Selectivity Index)” value is listed as 1.5. Besides, the IC50 with HIV-1RF (setting [4]) is 120 µM.
Regarding `O=[N+]([O-])c1cc(Cl)cc(Cl)c1[N+](=O)[O-]` [Compound E9, 1,5-dichloro-2,3-dinitrobenzene], the response vs control in vivo at 100 mg/kg in series [1] (ip) was found to be 386%.
With `O=[N+]([O-])c1ccc(Cl)c(Cl)c1Cl` [Compound E10, 1,2,3-trichloro-4-nitrobenzene], the half-inhibitory concentration (IC50) with HIV-1RF (setting [4]) was over 200 µM. Moreover, the CC50 in “in vitro” amounted to 90 µM.
The like results for `O=[N+]([O-])c1cc(Cl)c(Cl)cc1Cl` [Compound E11, 1,2,4-trichloro-5-nitrobenzene] were, in that order, over 200 µM and over 200 µM.
The like results for `O=[N+]([O-])c1c(Cl)cc(Cl)c(Cl)c1Cl` [Compound E13, 2,3,4,6-tetrachloronitrobenzene] were, in that order, over 200 µM and 80 µM.
The like results for `O=[N+]([O-])c1c(Cl)c(Cl)c(Cl)c(Cl)c1Cl` [Compound E14, pentachloronitrobenzene] were, in that order, over 200 µM and over 200 µM.
For `O=[N+]([O-])c1cc([N+](=O)[O-])c(Cl)c(S(=O)(=O)O)c1` [Compound S2, 2-chloro-3,5-dinitrobenzenesulfonic acid], the T/C% in series [1] (ip) is 137%. The compound also had a CD50 in the series with uninfected cells of over 200µm. The TI with HIV-1RF was over 8. For the same compound, in the series with HIV-1RF (read-out: IC50), the IC50 is 25 µM.
In series [1] (ip), `Nc1c([N+](=O)[O-])cc(S(=O)(=O)O)cc1[N+](=O)[O-]` [Compound S3, 4-amino-3,5-dinitrobenzenesulfonic acid] returned a T/C% of 286%. Moreover, the CD50 in the series with uninfected cells is 100µm. In the series with HIV-1RF, this compound registered a TI of 5. Also, in the series on HIV-1RF (read-out: IC50), the IC50 came out at 20 µM.
As to `O=[N+]([O-])c1cc(S(=O)(=O)O)ccc1Cl` [Compound S4, 4-chloro-3-nitrobenzenesulfonic acid], the response vs control in vivo at 100 mg/kg in series [1] (ip) turned out to be 140%. Moreover, the IC50 with HIV-1RF (setting [5]) was over 200 µM. For the same compound, the CC50 in “in vitro” was over 200 µM.
Turning to `O=S(=O)(O)c1ccc(Cl)cc1` [Compound S5, 4-chlorobenzenesulfonic acid], in series [1] (median survival, test vs solvent control, 100 mg kg^-1 ip per day, schedule days 1,2,3,4,5), the response vs control in vivo at 100 mg/kg came to 443%. For the same compound, the IC50 with HIV-1RF (setting [5]) is over 200 µM. The compound also showed a 50% cytotoxic concentration (CC50) in the series “in vitro” of over 200 µM.
Regarding `O=S(=O)(O)c1cc(Cl)ccc1Cl` [Compound S7, 2,5-dichlorobenzenesulfonic acid], the response vs control in vivo at 100 mg/kg in series [1] (ip) was determined as 212%. Besides, in the series with HIV-1RF (setting [5]), the IC50 was over 200 µM. Besides, the cytotoxic concentration (CC50) in the series “in vitro” is over 200 µM.
As to `O=[N+]([O-])c1ccc(S(=O)(=O)O)c([N+](=O)[O-])c1` [Compound S8, 2,4-dinitrobenzenesulfonic acid], in series [1] (ip), the T/C% was 171%. In addition, the IC50 with HIV-1RF (read-out: IC50 (Antiviral)) is 40 µM and 30 µM. This compound also gave a CC50 in the series “in vitro” of 100 µM.
